Data taken from BindingDB's records for doi:10.7270/Q2DV1HSV (Jishou University, 2017).

molecular target: Alpha-glucosidase MAL32 (Saccharomyces cerevisiae (strain ATCC 204508 / S288c), UniProt P38158); experiment: In Vitro α-Glucosidase Inhibitory Assay; details: pH 6.8; 37 °C
Method: The α-glucosidase inhibition assay had been carried out using baker's yeast α-glucosidase (EC 3.2.1.20) and p-nitrophenyl α-d-glucopyranoside. The test compounds were dissolved in DMSO to prepare the required distributing concentration. α-Glucosidase inhibitory activity was assayed by using 0.1 M phosphate buffer (pH 6.8) at 37 °C. The enzyme (0.1 U/mL) in phosphate buffer saline was incubated with various concentrations of test compounds at 37 °C for 15 min. […] After further incubation at 37 °C for 30 min. […] The sample solution was replaced by DMSO as a control. Acarbose was used as a positive control. All experiments were carried out in triplicates.

Chain of Alpha-glucosidase MAL32 (P38158 whole entry): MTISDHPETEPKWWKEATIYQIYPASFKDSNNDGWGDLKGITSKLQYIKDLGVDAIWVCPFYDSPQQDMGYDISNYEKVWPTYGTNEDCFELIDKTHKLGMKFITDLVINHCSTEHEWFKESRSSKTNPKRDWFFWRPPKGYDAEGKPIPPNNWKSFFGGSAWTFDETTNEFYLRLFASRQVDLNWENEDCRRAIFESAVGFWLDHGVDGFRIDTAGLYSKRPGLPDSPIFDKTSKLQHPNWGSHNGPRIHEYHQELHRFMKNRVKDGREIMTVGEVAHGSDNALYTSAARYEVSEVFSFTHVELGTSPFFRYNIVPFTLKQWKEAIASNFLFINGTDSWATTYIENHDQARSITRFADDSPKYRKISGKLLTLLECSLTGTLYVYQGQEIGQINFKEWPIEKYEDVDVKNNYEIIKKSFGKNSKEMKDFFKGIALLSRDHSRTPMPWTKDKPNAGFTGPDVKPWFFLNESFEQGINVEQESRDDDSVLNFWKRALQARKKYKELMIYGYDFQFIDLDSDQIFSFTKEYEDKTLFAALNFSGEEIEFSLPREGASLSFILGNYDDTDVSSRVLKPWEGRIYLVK

IC50 [µM] | SMILES
9.83 | O=C1Nc2ccccc2C1(c1cn(Cc2ccccc2)c2ccccc12)c1cn(Cc2ccccc2)c2ccccc12 [1,1''-Dibenzyl-1H,1''H-[3,3':3',3''-terindol]-2'(1'H)-one (4f)]
20.5 | O=C1Nc2ccc(Br)cc2C1(c1c[nH]c2ccccc12)c1c[nH]c2ccccc12 [5'-Bromo-1H,1''H-[3,3':3',3''-terindol]-2'(1'H)-one (4b)]
30.1 | Cc1ccc2c(c1)C(c1c[nH]c3ccccc13)(c1c[nH]c3ccccc13)C(=O)N2 [5'-Methyl-1H,1''H-[3,3':3',3''-terindol]-2'(1'H)-one (4d)]
10.3 | CC(C)n1cc(C2(c3cn(C(C)C)c4ccccc34)C(=O)Nc3ccccc32)c2ccccc21 [1,1''-Diisopropyl-[3,3':3',3''-terindolin]-2'-one (4l)]
9.16 | O=C1Nc2ccccc2C1(c1cn(Cc2ccc(Br)cc2)c2ccccc12)c1cn(Cc2ccc(Br)cc2)c2ccccc12 [1,1''-bis(4-Bromobenzyl)-1H,1''H-[3,3':3',3''-terindol]-2'(1'H)-one (4h)]
14.8 | CC(C)Cn1cc(C2(c3cn(CC(C)C)c4ccccc34)C(=O)Nc3ccccc32)c2ccccc21 [1,1''-Diisobutyl-[3,3':3',3''-terindolin]-2'-one (4n)]
13.7 | Cn1cc(C2(c3cn(C)c4ccccc34)C(=O)Nc3ccccc32)c2ccccc21 [1,1''-Dimethyl-1H,1''H-[3,3':3',3''-terindol]-2'(1'H)-one (4e)]
13.6 | CCCCn1cc(C2(c3cn(CCCC)c4ccccc34)C(=O)Nc3ccccc32)c2ccccc21 [1,1''-Dibutyl-[3,3':3',3''-terindolin]-2'-one (4m)]
7.92 | O=C1Nc2ccccc2C1(c1cn(Cc2cccc(F)c2)c2ccccc12)c1cn(Cc2cccc(F)c2)c2ccccc12 [1,1''-bis(3-Fluorobenzyl)-1H,1''H-[3,3':3',3''-terindol]-2'(1'H)-one (4g)]
146 | O=C1Nc2ccccc2C1(c1c[nH]c2ccccc12)c1c[nH]c2ccccc12 [1H,1''H-[3,3':3',3''-terindol]-2'(1'H)-one (4a)]
7.31 | O=C1Nc2ccccc2C1(c1cn(Cc2ccccc2Cl)c2ccccc12)c1cn(Cc2ccccc2Cl)c2ccccc12 [1,1''-bis(2-Chlorobenzyl)-[3,3':3',3''-terindolin]-2'-one (4i)]
11 | CCCn1cc(C2(c3cn(CCC)c4ccccc34)C(=O)Nc3ccccc32)c2ccccc21 [1,1''-Dipropyl-[3,3':3',3''-terindolin]-2'-one (4k)]

SMILES | IC50 [µM]
O=C1Nc2ccccc2C1(c1cn(Cc2ccccc2F)c2ccccc12)c1cn(Cc2ccccc2F)c2ccccc12 [1,1''-bis(2-Fluorobenzyl)-[3,3':3',3''-terindolin]-2'-one (4j)] | 5.98
